Measurements reported in the NIST ThermoML archive (doi:10.1016/j.jct.2011.09.001).

Legend:
[1] = refractive index (Na D-line) (dimensionless); xn = mol fraction of the nth substance listed; conditions: 101 kPa, Liquid, Standard Abbe refractometry
[2] = xn = mol fraction of the nth substance listed; conditions: 101 kPa, Liquid; for speed of sound: Sing-around technique in a fixed-path interferometer; for mass density: Vibrating tube method

c1ccc2c(c1)CCCC2 [1,2,3,4-tetrahydronaphthalene] + CCCCCCCCCC
Conditions | mass density, [2] [kg/m3] | refractive index, [1] | speed of sound, [2] [m/s]
293.15 K, x1 = 0.1008 | 747.8 | 1.4216 | 1269.3
293.15 K, x1 = 0.2034 | 766.8 | 1.4319 | 1285.2
293.15 K, x1 = 0.3 | 786.3 | 1.4422 | 1302.2
293.15 K, x1 = 0.401 | 807.5 | 1.4535 | 1320.2
293.15 K, x1 = 0.494 | 828.5 | 1.4648 | 1340.6
293.15 K, x1 = 0.5949 | 852.8 | 1.4778 | 1363.5
293.15 K, x1 = 0.7009 | 880.2 | 1.4925 | 1391.2
293.15 K, x1 = 0.7974 | 907 | 1.5071 | 1418.8
293.15 K, x1 = 0.8997 | 937.9 | 1.5239 | 1452.7
293.15 K, x1 = 1 | 969.5 | 1.5414 | 1489.5
303.15 K, x1 = 0.1008 | 740.2 | 1.4171 | 1230
303.15 K, x1 = 0.2034 | 759.1 | 1.4274 | 1246.1
303.15 K, x1 = 0.3 | 778.6 | 1.4376 | 1263.3
303.15 K, x1 = 0.401 | 799.8 | 1.449 | 1281.4
303.15 K, x1 = 0.494 | 820.8 | 1.4602 | 1301.9
303.15 K, x1 = 0.5949 | 845.1 | 1.4733 | 1324.9
303.15 K, x1 = 0.7009 | 872.4 | 1.488 | 1352.5
303.15 K, x1 = 0.7974 | 899.1 | 1.5026 | 1380.1
303.15 K, x1 = 0.8997 | 930 | 1.5193 | 1413.8
303.15 K, x1 = 1 | 961.6 | 1.5367 | 1450.1
313.15 K, x1 = 0.1008 | 732.6 | 1.4126 | 1191.3
313.15 K, x1 = 0.2034 | 751.5 | 1.4229 | 1207.6
313.15 K, x1 = 0.3 | 770.9 | 1.4331 | 1224.9
313.15 K, x1 = 0.401 | 792.1 | 1.4445 | 1243.1
313.15 K, x1 = 0.494 | 812.9 | 1.4556 | 1263.8
313.15 K, x1 = 0.5949 | 837.3 | 1.4688 | 1286.8
313.15 K, x1 = 0.7009 | 864.7 | 1.4835 | 1314.5
313.15 K, x1 = 0.7974 | 891.4 | 1.498 | 1342.1
313.15 K, x1 = 0.8997 | 922.1 | 1.5148 | 1375.5
313.15 K, x1 = 1 | 953.7 | 1.5321 | 1411.5
323.15 K, x1 = 0.1008 | 724.9 | 1.4081 | 1153.1
323.15 K, x1 = 0.2034 | 743.8 | 1.4183 | 1169.6
323.15 K, x1 = 0.3 | 763.2 | 1.4285 | 1187.1
323.15 K, x1 = 0.401 | 784.3 | 1.4399 | 1205.4
323.15 K, x1 = 0.494 | 805.2 | 1.4511 | 1226.2
323.15 K, x1 = 0.5949 | 829.5 | 1.4642 | 1249.3
323.15 K, x1 = 0.7009 | 856.8 | 1.479 | 1277.1
323.15 K, x1 = 0.7974 | 883.6 | 1.4933 | 1304.6
323.15 K, x1 = 0.8997 | 914.2 | 1.5102 | 1337.9
323.15 K, x1 = 1 | 945.7 | 1.5274 | 1373.6
333.15 K, x1 = 0.1008 | 717.2 | 1.4035 | 1115.5
333.15 K, x1 = 0.2034 | 736 | 1.4137 | 1132.1
333.15 K, x1 = 0.3 | 755.4 | 1.4238 | 1149.8
333.15 K, x1 = 0.401 | 776.5 | 1.4355 | 1168.2
333.15 K, x1 = 0.494 | 797.3 | 1.4463 | 1189.2
333.15 K, x1 = 0.5949 | 821.6 | 1.4597 | 1212.4
333.15 K, x1 = 0.7009 | 849 | 1.4744 | 1240.2
333.15 K, x1 = 0.7974 | 875.7 | 1.4887 | 1267.8
333.15 K, x1 = 0.8997 | 906.3 | 1.5055 | 1300.9
333.15 K, x1 = 1 | 937.8 | 1.5228 | 1336.4
343.15 K, x1 = 0.1008 | 709.3 | 1.3988 | 1078.4
343.15 K, x1 = 0.2034 | 728.2 | 1.4092 | 1095.2
343.15 K, x1 = 0.3 | 747.6 | 1.4192 | 1113.2
343.15 K, x1 = 0.401 | 768.7 | 1.4308 | 1131.6
343.15 K, x1 = 0.494 | 789.5 | 1.4418 | 1152.9
343.15 K, x1 = 0.5949 | 813.7 | 1.4549 | 1176.1
343.15 K, x1 = 0.7009 | 841.1 | 1.4697 | 1204.1
343.15 K, x1 = 0.7974 | 867.7 | 1.4841 | 1231.5
343.15 K, x1 = 0.8997 | 898.4 | 1.5008 | 1264.7
343.15 K, x1 = 1 | 929.8 | 1.518 | 1299.8
